{"source": "the supplement of paper PMC10307832", "test_in_all_cases": "relative viability (nuclei count vs DMSO), 5 days (fraction); higher = more cells survive", "key": {"201T": {"system": "201T", "how_it_was_run": "(§1)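 Relative viability equals treated-well nuclei counts divided by vehicle-well nuclei counts. Counts came from 4× images of lung cancer cell lines grown in 1536-well plates for 5 days after pin-tool dosing on the day after seeding. Dosing used one drug alone or a fixed anchor-drug dose plus five library-drug doses (not always all listed) in √10 steps, and values are medians of duplicate plates.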"}, "HCC-827": {"system": "HCC-827", "how_it_was_run": "as §1"}, "RERF-LC-KJ": {"system": "RERF-LC-KJ", "how_it_was_run": "as §1"}, "NCI-H2087": {"system": "NCI-H2087", "how_it_was_run": "as §1"}, "NCI-H1915": {"system": "NCI-H1915", "how_it_was_run": "as §1"}, "NCI-H1666": {"system": "NCI-H1666", "how_it_was_run": "as §1"}, "PC-14": {"system": "PC-14", "how_it_was_run": "as §1"}, "NCI-H520": {"system": "NCI-H520", "how_it_was_run": "as §1"}, "NCI-H647": {"system": "NCI-H647", "how_it_was_run": "as §1"}, "H3255": {"system": "H3255", "how_it_was_run": "as §1"}, "HCC-78": {"system": "HCC-78", "how_it_was_run": "as §1"}, "NCI-H23": {"system": "NCI-H23", "how_it_was_run": "as §1"}, "NCI-H2347": {"system": "NCI-H2347", "how_it_was_run": "as §1"}, "COR-L 105": {"system": "COR-L 105", "how_it_was_run": "as §1"}, "NCI-H2405": {"system": "NCI-H2405", "how_it_was_run": "as §1"}, "NCI-H2126": {"system": "NCI-H2126", "how_it_was_run": "as §1"}, "LC-2-ad": {"system": "LC-2-ad", "how_it_was_run": "as §1"}, "EPLC-272H": {"system": "EPLC-272H", "how_it_was_run": "as §1"}, "LCLC-97TM1": {"system": "LCLC-97TM1", "how_it_was_run": "as §1"}, "ChaGo-K-1": {"system": "ChaGo-K-1", "how_it_was_run": "as §1"}}}
{"smiles": "O=c1cc(N2CCOCC2)oc2c(-c3cccc4c3sc3ccccc34)cccc12", "note": "+ CC1(C)CCC(c2ccc(Cl)cc2)=C(CN2CCN(c3ccc(C(=O)NS(=O)(=O)c4ccc(N[C@H](CCN5CCOCC5)CSc5ccccc5)c(S(=O)(=O)C(F)(F)F)c4)cc3)CC2)C1 [Navitoclax] (partner 0.5 µM)", "values": [{"measurement": "relative viability", "setting": "201T; first compound 0.01 µM", "value": 1.2}, {"measurement": "relative viability", "setting": "201T; first compound 0.03162 µM", "value": 1.17}, {"measurement": "relative viability", "setting": "201T; first compound 0.1 µM", "value": 1.19}, {"measurement": "relative viability", "setting": "201T; first compound 0.3162 µM", "value": 1.19}, {"measurement": "relative viability", "setting": "201T; first compound 1 µM", "value": 1.18}, {"measurement": "relative viability", "setting": "HCC-827; first compound 0.01 µM", "value": 1.02}, {"measurement": "relative viability", "setting": "HCC-827; first compound 0.03162 µM", "value": 0.996}, {"measurement": "relative viability", "setting": "HCC-827; first compound 0.1 µM", "value": 1.01}, {"measurement": "relative viability", "setting": "HCC-827; first compound 0.3162 µM", "value": 1.07}, {"measurement": "relative viability", "setting": "HCC-827; first compound 1 µM", "value": 1.02}, {"measurement": "relative viability", "setting": "RERF-LC-KJ; first compound 0.01 µM", "value": 0.926}, {"measurement": "relative viability", "setting": "RERF-LC-KJ; first compound 0.03162 µM", "value": 1.2}, {"measurement": "relative viability", "setting": "RERF-LC-KJ; first compound 0.1 µM", "value": 0.98}, {"measurement": "relative viability", "setting": "RERF-LC-KJ; first compound 0.3162 µM", "value": 0.85}, {"measurement": "relative viability", "setting": "RERF-LC-KJ; first compound 1 µM", "value": 0.974}, {"measurement": "relative viability", "setting": "NCI-H2087; first compound 0.01 µM", "value": 0.929}, {"measurement": "relative viability", "setting": "NCI-H2087; first compound 0.03162 µM", "value": 0.904}, {"measurement": "relative viability", "setting": "NCI-H2087; first compound 0.1 µM", "value": 1.01}, {"measurement": "relative viability", "setting": "NCI-H2087; first compound 0.3162 µM", "value": 0.919}, {"measurement": "relative viability", "setting": "NCI-H2087; first compound 1 µM", "value": 0.857}, {"measurement": "relative viability", "setting": "NCI-H1915; first compound 0.01 µM", "value": 0.792}, {"measurement": "relative viability", "setting": "NCI-H1915; first compound 0.03162 µM", "value": 0.788}, {"measurement": "relative viability", "setting": "NCI-H1915; first compound 0.1 µM", "value": 0.809}, {"measurement": "relative viability", "setting": "NCI-H1915; first compound 0.3162 µM", "value": 0.779}, {"measurement": "relative viability", "setting": "NCI-H1915; first compound 1 µM", "value": 0.824}, {"measurement": "relative viability", "setting": "NCI-H1666; first compound 0.01 µM", "value": 0.941}, {"measurement": "relative viability", "setting": "NCI-H1666; first compound 0.03162 µM", "value": 0.899}, {"measurement": "relative viability", "setting": "NCI-H1666; first compound 0.1 µM", "value": 0.819}, {"measurement": "relative viability", "setting": "NCI-H1666; first compound 0.3162 µM", "value": 0.798}, {"measurement": "relative viability", "setting": "NCI-H1666; first compound 1 µM", "value": 0.895}, {"measurement": "relative viability", "setting": "PC-14; first compound 0.01 µM", "value": 1.09}, {"measurement": "relative viability", "setting": "PC-14; first compound 0.03162 µM", "value": 0.95}, {"measurement": "relative viability", "setting": "PC-14; first compound 0.1 µM", "value": 1.08}, {"measurement": "relative viability", "setting": "PC-14; first compound 0.3162 µM", "value": 1.07}, {"measurement": "relative viability", "setting": "PC-14; first compound 1 µM", "value": 1.03}, {"measurement": "relative viability", "setting": "NCI-H520; first compound 0.01 µM", "value": 1.11}, {"measurement": "relative viability", "setting": "NCI-H520; first compound 0.03162 µM", "value": 1.14}, {"measurement": "relative viability", "setting": "NCI-H520; first compound 0.1 µM", "value": 1.18}, {"measurement": "relative viability", "setting": "NCI-H520; first compound 0.3162 µM", "value": 1.05}, {"measurement": "relative viability", "setting": "NCI-H520; first compound 1 µM", "value": 1.22}, {"measurement": "relative viability", "setting": "NCI-H647; first compound 0.01 µM", "value": 0.985}, {"measurement": "relative viability", "setting": "NCI-H647; first compound 0.3162 µM", "value": 1.06}, {"measurement": "relative viability", "setting": "NCI-H647; first compound 1 µM", "value": 1.1}, {"measurement": "relative viability", "setting": "H3255; first compound 0.01 µM", "value": 0.557}, {"measurement": "relative viability", "setting": "H3255; first compound 0.03162 µM", "value": 0.5}, {"measurement": "relative viability", "setting": "H3255; first compound 0.1 µM", "value": 0.555}, {"measurement": "relative viability", "setting": "H3255; first compound 0.3162 µM", "value": 0.54}, {"measurement": "relative viability", "setting": "H3255; first compound 1 µM", "value": 0.527}, {"measurement": "relative viability", "setting": "HCC-78; first compound 0.01 µM", "value": 0.742}, {"measurement": "relative viability", "setting": "HCC-78; first compound 0.03162 µM", "value": 0.831}, {"measurement": "relative viability", "setting": "HCC-78; first compound 0.1 µM", "value": 0.756}, {"measurement": "relative viability", "setting": "HCC-78; first compound 0.3162 µM", "value": 0.755}, {"measurement": "relative viability", "setting": "HCC-78; first compound 1 µM", "value": 0.843}, {"measurement": "relative viability", "setting": "NCI-H23; first compound 0.01 µM", "value": 0.981}, {"measurement": "relative viability", "setting": "NCI-H23; first compound 0.03162 µM", "value": 0.846}, {"measurement": "relative viability", "setting": "NCI-H23; first compound 0.3162 µM", "value": 0.832}, {"measurement": "relative viability", "setting": "NCI-H23; first compound 1 µM", "value": 0.777}, {"measurement": "relative viability", "setting": "NCI-H2347; first compound 0.01 µM", "value": 1.11}, {"measurement": "relative viability", "setting": "NCI-H2347; first compound 0.03162 µM", "value": 0.804}, {"measurement": "relative viability", "setting": "NCI-H2347; first compound 0.1 µM", "value": 0.844}, {"measurement": "relative viability", "setting": "NCI-H2347; first compound 0.3162 µM", "value": 0.754}, {"measurement": "relative viability", "setting": "NCI-H2347; first compound 1 µM", "value": 0.897}, {"measurement": "relative viability", "setting": "COR-L 105; first compound 0.01 µM", "value": 0.91}, {"measurement": "relative viability", "setting": "COR-L 105; first compound 0.03162 µM", "value": 0.817}, {"measurement": "relative viability", "setting": "COR-L 105; first compound 0.1 µM", "value": 0.79}, {"measurement": "relative viability", "setting": "COR-L 105; first compound 0.3162 µM", "value": 0.73}, {"measurement": "relative viability", "setting": "COR-L 105; first compound 1 µM", "value": 0.676}, {"measurement": "relative viability", "setting": "NCI-H2405; first compound 0.01 µM", "value": 0.837}, {"measurement": "relative viability", "setting": "NCI-H2405; first compound 0.03162 µM", "value": 1.01}, {"measurement": "relative viability", "setting": "NCI-H2405; first compound 0.1 µM", "value": 0.838}, {"measurement": "relative viability", "setting": "NCI-H2405; first compound 0.3162 µM", "value": 0.811}, {"measurement": "relative viability", "setting": "NCI-H2405; first compound 1 µM", "value": 0.95}, {"measurement": "relative viability", "setting": "NCI-H2126; first compound 0.01 µM", "value": 0.845}, {"measurement": "relative viability", "setting": "NCI-H2126; first compound 0.03162 µM", "value": 0.839}, {"measurement": "relative viability", "setting": "NCI-H2126; first compound 0.1 µM", "value": 0.868}, {"measurement": "relative viability", "setting": "NCI-H2126; first compound 0.3162 µM", "value": 0.889}, {"measurement": "relative viability", "setting": "NCI-H2126; first compound 1 µM", "value": 0.794}, {"measurement": "relative viability", "setting": "LC-2-ad; first compound 0.01 µM", "value": 0.646}, {"measurement": "relative viability", "setting": "LC-2-ad; first compound 0.1 µM", "value": 0.543}, {"measurement": "relative viability", "setting": "LC-2-ad; first compound 0.3162 µM", "value": 0.546}, {"measurement": "relative viability", "setting": "LC-2-ad; first compound 1 µM", "value": 0.386}, {"measurement": "relative viability", "setting": "EPLC-272H; first compound 0.01 µM", "value": 1.11}, {"measurement": "relative viability", "setting": "EPLC-272H; first compound 0.03162 µM", "value": 1.05}, {"measurement": "relative viability", "setting": "EPLC-272H; first compound 0.3162 µM", "value": 1.04}, {"measurement": "relative viability", "setting": "EPLC-272H; first compound 1 µM", "value": 1.08}, {"measurement": "relative viability", "setting": "LCLC-97TM1; first compound 0.01 µM", "value": 0.391}, {"measurement": "relative viability", "setting": "LCLC-97TM1; first compound 0.03162 µM", "value": 0.568}, {"measurement": "relative viability", "setting": "LCLC-97TM1; first compound 0.3162 µM", "value": 0.362}, {"measurement": "relative viability", "setting": "LCLC-97TM1; first compound 1 µM", "value": 0.346}, {"measurement": "relative viability", "setting": "ChaGo-K-1; first compound 0.01 µM", "value": 1.04}, {"measurement": "relative viability", "setting": "ChaGo-K-1; first compound 0.03162 µM", "value": 0.927}, {"measurement": "relative viability", "setting": "ChaGo-K-1; first compound 0.1 µM", "value": 0.729}, {"measurement": "relative viability", "setting": "ChaGo-K-1; first compound 0.3162 µM", "value": 1.06}, {"measurement": "relative viability", "setting": "ChaGo-K-1; first compound 1 µM", "value": 0.971}]}
